Results published in patent US6462086B1, “Non-malignant disease treatment with Ras antagonists” (Ramot University Authority for Applied Research and …, priority 1999, dated 2002).

How the values were obtained:
[1] = system: TAA-induced acute liver injury in rats; assay: TAA-induced acute liver damage in FTS-pretreated rats; assay type: in vivo, rat; details: TAA + FTS 5 mg/kg daily from 3 days before TAA; 52 h; Mean ± SD, n = 5
Description: To exclude the possibility that the effect of FTS on hepatic fibrosis is due to anti-inflammatory rather than anti fibrotic activity, acute liver damage was induced by TAA (3 injections of 400 mg/kg, i.p.) in a separate group of FTS-pretreated rats. Blood was drawn 52 h after the first TAA injection for the measurement of serum levels of hepatic enzymes and blood ammonia, and liver tissue was […]. TAA was administered in 3 consecutive injections of 400 mg/kg, i.p. in 24 h intervals. Serum levels of liver enzymes, blood ammonia and liver histology were determined 52 h after the first TAA injection. FTS administration (5 mg/kg daily), was started 3 days prior to the first TAA injection.

CR-EAE in SJL/J mice = assay: Chronic-relapsing EAE (CR-EAE) by transfer of PLP-sensitized lymphocytes, clinical signs; assay type: in vivo, mouse
MRL/lpr and MRL/++ mice = assay type: in vivo; details: FTS 5 mg/Kg/day
Description: FTS was synthesized as previously described (13). FTS was stored in chloroform, which was evaporated under a stream of nitrogen immediately before use. The powder was dissolved in absolute ethanol and diluted to the desired concentration in sterile saline made basic with NaOH. 200 μl of carrier solution containing 100 μg of FTS (5 mg/kg) were injected intraperitoneally (i.p.) into each mouse. Control solution was prepared at the same time starting with a chloroform solution.
Mice were treated once a day, 3-5 times a week starting from 6 or 10 weeks of age until 18 weeks of age.
Proteinuria was normalized in FTS-treated MRL/lpr mice as were grip strength and certain aspects of behavior in the open field.

[2] = Solubility in water and saline; assay type: physicochemical
Description: In these formulations, the alkyl gallate, etc., is present in an amount of from 0.02% to about 0.05%, and the citric or phosphoric acid is present in an amount of about 0.01%. These formulations are suitable for parenteral administraiton.
In one embodiment of the present invention, both of these shortcomings are overcome by formulating the agent in cyclodextrin. This technology is the subject of U.S. Pat. Nos. 5,681,828 and 5,935,941. Cyclodextrins are a group of compounds consisting of, or derived from, the three parent cyclodextrins—alpha-, beta- and gamma-cyclodextrins. Alpha-, beta- and gamma-cyclodextrins are simple oligosaccharides consisting of six, seven or eight anhydroglucose residues, respectively, connected to macrocyles by alpha (1 to 4) glycosidic bonds. Each of the glucose residues of a cyclodextrin contains one primary (O6) and two secondary hydroxyls (O2 and O3) which can be substituted, for example, methylated. Many cyclodextrin preparations in practical use are mixtures of chemically individual derivatives in which only a part of hydroxy groups were substituted and which differ in number and position of these substituents.

MRL/lpr mice = assay: Disease activity in MRL/lpr mice (proteinuria, lymphadenopathy, grip strength; Example 4); assay type: in vivo, mouse
Description: One of the important measures of disease activity in MRL/lpr mice is proteinuria. Levels of proteinura were measured weekly by means of dip-sticks in MRL/lpr and Mrl/++ mice treated daily with FTS or with vehicle alone. Significant proteinuria developed in the MRL/lpr treated with vehicle compared to the MRL/++ groups. […] Other systemic measures of disease activity including lymphadenopathy and lymphocyte proliferation were normalized in FTS treated MRL/lpr mice (not shown).

human HSC = assay: PDGF-stimulated DNA synthesis ([3H]TdR) in human hepatic stellate cells; assay type: cell-based; details: PDGF-BB 10 ng/ml; 24 h FTS
Description: Human HSCs were isolated from wedge sections of normal human liver unsuitable for transplantation as previously reported (6, 7). Briefly, after a combined digestion with collagenase/pronase, HSCs were separated from other liver nonparenchymal cells by ultracentrifugation over gradients of stractan (Cellsep™ isotonic solution, Larex Inc., St. Paul, Minn.). Extensive characterization was performed as described in (7). Cells were cultured on plastic culture dishes (Falcon, Becton Dickinson, Lincoln Park, N.J.) in Iscove's modified Dulbecco's medium supplemented with 0.6 U/ml insulin, 2.0 mmol/L glutamine, 0.1 mmol/L nonessential amino acids, 1.0 mmol/L sodium pyruvate, antibiotic antifungal solution (all provided by Gibco Laboratories, Grand Island, N.Y.) and 20% fetal bovine serum (Imperial Laboratories, Andover, U.K.). Experiments described in this study were performed on cells between third and fifth serial passages (1:3 split ratio) using three independent cell lines.
DNA synthesis was measured as the amount of [Methyl-^3H]thymidine ([^3 H]TdR) incorporated into trichloroacetic acid-precipitable material. […] At the end of the pulsing period, [^3H]TdR incorporation into cellular DNA was measured as previously reported (8). Cell number was determined in three separate wells from each dish and results were expressed as cpm/10^5 cells.

Ras = assay: Amount of Ras in spleen lymphocytes of FTS-treated SJL mice (Western immunoblot, pan-Ras Ab); assay type: in vivo, mouse; details: FTS 5 mg/kg/day, 48 h following treatment, densitometry
Description: Naive SJL mice received either the vehicle or FTS (10 mg/Kg, i.p., twice a day) for 2 days. The total amounts of Ras were then determined in cell lysates prepared as detailed in (14). Briefly, spleen lymphocytes of the control and of the FTS-treated mice were homogenized in homogenization buffer as detailed previously (14-15). Total cellular protein (50 μg) corresponding to 1.2×10^6 cells, as separated by 12.5% sodium dodecylsulfate polyacrylamide gel electrophoresis (SDS-PAGE) and blotted onto nitrocellulose membranes. hmmunoblotting with pan-Ras Ab (pan-Ras Ab-3, Calbiochem), enhanced chemiluminescense assays (ECL) and densitometric analysis were then performed as detailed previously (14-15). Lymphocytes of vehicle- and of FTS-treated (5 mg/kg/day) SJL mice were obtained from the spleens of mice, 48 h following treatment. The cells where then homogenized and the total amount of Ras was determined by Western immunobloting with pan Ras antibody (14). The apparent amount of Ras in the lymphocytes of the FTS-treated mice was lower than that of the control lymphocytes.

CC(C)=CCC/C(C)=C/CC/C(C)=C/CSc1ccccc1C(=O)O [FTS, farnesyl thiosalicylic acid]
AST [1]: 2996 ± 364 IU/l | Blood Ammonia [1]: 8.9 ± 2.3 µg/mL | Hepatic inflammation and cell necrosis (score of 0-3) [1]: 2.5 ± 0.6 | clinical course of CR-EAE (FIG. 2) (CR-EAE in SJL/J mice; FTS 5 mg/kg/day from day of cell transfer): milder form of CR-EAE | mortality in CR-EAE (CR-EAE in SJL/J mice; FTS 5 mg/kg/day, vehicle group 30%): none of them died | total relapses of the paralytic disease (CR-EAE in SJL/J mice; follow-up 2-3 months, n=7, control 9): 5 | toxicity (MRL/lpr and MRL/++ mice): no significant toxicity | solubility in water / saline [2]: insoluble in water | lymphadenopathy and lymphocyte proliferation (MRL/lpr mice; MRL/lpr mice): normalized | weakness as measured by grip strength on a horizontal bar (MRL/lpr mice; MRL/lpr mice): normalized by FTS treatment | proteinuria (dip-sticks, FIG. 15) (MRL/lpr mice; MRL/lpr mice treated daily): did not develop significant proteinuria | FTS concentration affecting PDGF-stimulated 3H-thymidine incorporation into DNA (human HSC): 25 to 50 µM | reduction in the amount of Ras in lymphocytes (Ras): 36±7%
